Measured values as given in patent US5468760A, “Aralkyl-N-hydroxyureas as inhibitors of 5-lipoxygenase and oxidation of low density lipoprotein” (American Home Products Corporation, priority 1993, dated 1995).

Tested on: LTB4 Synthesis
Assay: Reverse Passive Arthus Reaction (pleurisy), LTB4 in pleural exudate
Format: in vivo, rat (male Lewis)
Details: p.o.
Experimental: 3. Reverse Passive Arthus Reaction
A reverse passive Arthus reaction is induced in the pleural cavity of male Lewis rats (150-200 g; fasted overnight prior to use) by the intravenous administration of bovine serum albumin (BSA; 4 mg/0.2 ml) followed 30 minutes later by the injection of rabbit anti-BSA (1 mg/0.2 ml; lyophilized IgG fraction; Organon Teknika, West Chester, Pa.) into the right pleural space under halothane anesthesia. Drugs or vehicle (0.5% Tween-80) control are administered orally in a volume of 1 ml/100 g body weight at 1 hour prior to the anti-BSA. Animals are sacrificed at either the time of peak eicosanoid production (i.e. 5 minutes after anti-BSA for immunoreactive TxB2, 10 minutes for immunoreactive LTB4, 20 minutes for immunoreactive LTC4) or at the time of peak neutrophil infiltration (4 hours after anti-BSA) by CO2 inhalation. The pleural cavity is then exposed., the fluid exudate removed by gentle vacuum aspiration and the volume of exudate is recorded. For the determination of cellular infiltration, the pleural cavity is rinsed with 3 ml of 0.1% EDTA in sterile saline, and the recovered wash is pooled with the exudate. Cell number is determined on a model ZBI Coulter counter. For determination of eicosanoid production, undiluted pleural exudate is microfuged and the supernatant is extracted with ethanol (8-10 times volume). Extracts are either stored at -20° C., or are evaporated to dryness under a stream of N2 and reconstituted in radioimmunoassay (RIA) buffer.
Eicosanoids are quantitated by RIA according to the procedure specified by the RIA kit manufacturer (Advanced Magnetics, Cambridge, Mass.). Briefly, 100 μl of ^3 H-labeled eicosanoid and 100 μl of specific antibody are sequentially added to 100 μl of extracted pleural exudate in BGG-phosphate buffer which contains 0.01M phosphate, 0.1% bovine gamma globulin and 0.1% sodium azide at pH 7.0. Antibody-bound eicosanoid is separated from unbound eicosanoid by the addition of 750 μl of dextran (0.4%)-coated charcoal (Norit A) containing 0.1% sodium azide. The mixture is centrifuged at 2000 RPM at 5° C. for 15 minutes to pellet the charcoal and adsorbed unbound eicosanoid. Antibody-bound labeled eicosanoid is quantitated by counting in a liquid scintillation counter, and is correlated to concentration by a standard curve.

Cc1oc(-c2ccccc2)nc1COc1cccc(CN(O)C(N)=O)c1 [Example 1, 1-Hydroxy-1-[3-(5-methyl-2-phenyl-oxazol-4-ylmethoxy)-benzyl]-urea]
% Inhibition LTB4 Synthesis (25 mg/kg): 79%

NC(=O)N(O)Cc1cccc(OCc2csc(-c3ccccc3)n2)c1 [Example 5, 1-Hydroxy-1-[3-(2-phenyl-thiazol-4-ylmethoxy)-benzyl]-urea]
% Inhibition LTB4 Synthesis (10 mg/kg): 43%

Cc1oc(-c2ccc(F)cc2)nc1COc1cccc(CN(O)C(N)=O)c1 [Example 9, 1-[3-[2-(4-fluorophenyl)-5-methyl-oxazol-4-ylmethoxy]-benzyl]-1-hydroxy-urea]
% Inhibition LTB4 Synthesis (10 mg/kg): 27%

Cc1oc(-c2ccccc2)nc1COc1cc(F)cc(CN(O)C(N)=O)c1 [Example 13, 1-[3-Fluoro-5-(5-methyl-2-phenyl-oxazol-4-ylmethoxy)-benzyl]-1-hydroxy-urea]
% Inhibition LTB4 Synthesis (10 mg/kg): 17%
